Experimental data taken from ChEMBL document CHEMBL1275481, “Mechanism and fitness costs of PR-39 resistance in Salmonella enterica serovar Typhimurium LT2” (2008).
≈ marks a conversion by molar mass, not a printed value. Calls of active or inactive are those of the source. The rule behind the calls is not given here.

Experiments:
[1] = tested on: Salmonella typhimurium; assay: Antimicrobial activity against PR-39-resistant sbmA-deficient Salmonella enterica serovar Typhimurium LT2 DA12088 by Etest; format: functional
[2] = tested on: Salmonella typhimurium; assay: Antimicrobial activity against PR-39-resistant Salmonella enterica serovar Typhimurium LT2 DA6192 by Etest; format: functional
[3] = tested on: Salmonella typhimurium; assay: Antimicrobial activity against PR-39-resistant Salmonella enterica serovar Typhimurium LT2 DA10899 harboring Q179Stop mutant gene by Etest; format: functional
[4] = tested on: Salmonella typhimurium; assay: Antimicrobial activity against Salmonella enterica serovar Typhimurium LT2 DA6192 by Etest; format: functional
[5] = tested on: Salmonella typhimurium; assay: Antimicrobial activity against Salmonella enterica serovar Typhimurium LT2 at 16 uM after 24 hrs; format: functional, organism-based; conditions: Salmonella enterica subsp. enterica serovar Typhimurium
[6] = tested on: Salmonella typhimurium; assay: Antimicrobial activity against Salmonella enterica serovar Typhimurium LT2 DA14344 harboring sbmA Q179Stop gene by Etest in presence of arabinose; format: functional
[7] = tested on: Salmonella typhimurium; assay: Antimicrobial activity against sbmA-deficient Salmonella enterica serovar Typhimurium LT2 DA12088 at 16 uM after 24 hrs; format: functional, organism-based; conditions: Salmonella enterica subsp. enterica serovar Typhimurium str. LT2
[8] = tested on: Salmonella typhimurium; assay: Antimicrobial activity against Salmonella enterica serovar Typhimurium LT2 at 8 uM after 24 hrs; format: functional, organism-based; conditions: Salmonella enterica subsp. enterica serovar Typhimurium
[9] = tested on: Salmonella typhimurium; assay: Antimicrobial activity against Salmonella enterica serovar Typhimurium LT2 DA10899 harboring sbmA Q179Stop mutant gene by Etest; format: functional
[10] = tested on: Salmonella typhimurium; assay: Antimicrobial activity against sbmA-deficient Salmonella enterica serovar Typhimurium LT2 DA13090 harboring sbmA gene by Etest in presence of arabinose; format: functional
[11] = tested on: Salmonella typhimurium; assay: Antimicrobial activity against sbmA-deficient Salmonella enterica serovar Typhimurium LT2 DA12088 assessed as log increase in survival rate at 8 uM after 24 hrs relative to wild type; format: functional
[12] = tested on: Salmonella typhimurium; assay: Antimicrobial activity against sbmA-deficient Salmonella enterica serovar Typhimurium LT2 DA12088 assessed as log increase in survival rate at 4 uM after 24 hrs relative to wild type; format: functional
[13] = tested on: Salmonella typhimurium; assay: Antimicrobial activity against sbmA-deficient Salmonella enterica serovar Typhimurium LT2 DA12088 by Etest; format: functional
[14] = tested on: Salmonella typhimurium; assay: Antimicrobial activity against Salmonella enterica serovar Typhimurium LT2 by Etest; format: functional, Salmonella enterica subsp. enterica serovar Typhimurium
[15] = tested on: Salmonella typhimurium; assay: Antimicrobial activity against Salmonella enterica serovar Typhimurium LT2 DA10914 harboring sbmA S251L mutant gene by Etest; format: functional
[16] = tested on: Salmonella typhimurium; assay: Antimicrobial activity against sbmA-deficient Salmonella enterica serovar Typhimurium LT2 DA12088 assessed as log increase in survival rate at 16 uM after 24 hrs relative to wild type; format: functional
[17] = tested on: Salmonella typhimurium; assay: Antimicrobial activity against Salmonella enterica serovar Typhimurium LT2 DA10896 harboring sbmA T375K mutant gene by Etest; format: functional
[18] = tested on: Salmonella typhimurium; assay: Antimicrobial activity against Salmonella enterica serovar Typhimurium LT2 DA10897 harboring sbmA W373Stop mutant gene by Etest; format: functional
[19] = tested on: Salmonella typhimurium; assay: Antimicrobial activity against Salmonella enterica serovar Typhimurium LT2 DA10902 harboring deletion of bp 843-844 in sbmA gene by Etest; format: functional
[20] = tested on: Salmonella typhimurium; assay: Antimicrobial activity against Salmonella enterica serovar Typhimurium LT2 DA10913 harboring sbmA C67Stop mutant gene by Etest; format: functional
[21] = tested on: Salmonella typhimurium; assay: Antimicrobial activity against Salmonella enterica serovar Typhimurium LT2 DA10899 harboring Q179Stop mutant gene at 16 uM after 24 hrs; format: functional, organism-based; conditions: Salmonella enterica subsp. enterica serovar Typhimurium str. LT2
[22] = tested on: Salmonella typhimurium; assay: Antimicrobial activity against Salmonella enterica serovar Typhimurium LT2 DA10907 harboring sbmA E287K mutant gene by Etest; format: functional
[23] = tested on: Salmonella typhimurium; assay: Antimicrobial activity against Salmonella enterica serovar Typhimurium LT2 DA10912 harboring sbmA Y326C mutant gene by Etest; format: functional
[24] = tested on: Salmonella typhimurium; assay: Antimicrobial activity against Salmonella enterica serovar Typhimurium LT2 DA13088 harboring sbmA gene by Etest in presence of arabinose; format: functional
[25] = tested on: Salmonella typhimurium; assay: Antimicrobial activity against sbmA-deficient Salmonella enterica serovar Typhimurium LT2 DA12088 at 8 uM after 24 hrs; format: functional, organism-based; conditions: Salmonella enterica subsp. enterica serovar Typhimurium str. LT2
[26] = tested on: Salmonella typhimurium; assay: Antimicrobial activity against Salmonella enterica serovar Typhimurium LT2 DA10905 harboring sbmA L379P mutant gene by Etest; format: functional
[27] = tested on: Salmonella typhimurium; assay: Antimicrobial activity against Salmonella enterica serovar Typhimurium LT2 DA10898 harboring deletion of bp 967 in sbmA gene by Etest; format: functional
[28] = tested on: Salmonella typhimurium; assay: Antimicrobial activity against Salmonella enterica serovar Typhimurium LT2 DA10899 harboring Q179Stop mutant gene at 8 uM after 24 hrs; format: functional, organism-based; conditions: Salmonella enterica subsp. enterica serovar Typhimurium str. LT2
[29] = Salmonella enterica subsp. enterica serovar Typhimurium str. LT2

CC1(C)S[C@@H]2[C@H](NC(=O)[C@H](N)c3ccccc3)C(=O)N2[C@H]1C(=O)O [AMPICILLIN]
MIC [1]: 0.75 µg/mL (≈ 2.15 µM)
MIC [2]: 0.75 µg/mL (≈ 2.15 µM)
MIC [3]: 0.75 µg/mL (≈ 2.15 µM)

CC[C@H](C)[C@H](NC(=O)[C@H](CCCCN)NC(=O)[C@H](CCC(=O)O)NC(=O)[C@H](CCCCN)NC(=O)[C@H](CO)NC(=O)[C@H](CCCCN)NC(=O)[C@H](CCCNC(=N)N)NC(=O)[C@H](Cc1ccccc1)NC(=O)[C@H](Cc1ccccc1)NC(=O)[C@H](CC(=O)O)NC(=O)CNC(=O)[C@H](CC(C)C)NC(=O)[C@@H](N)CC(C)C)C(=O)NCC(=O)N[C@@H](CCCCN)C(=O)N[C@@H](CCC(=O)O)C(=O)N[C@@H](Cc1ccccc1)C(=O)N[C@@H](CCCCN)C(=O)N[C@@H](CCCNC(=N)N)C(=O)N[C@H](C(=O)N[C@H](C(=O)N[C@@H](CCC(N)=O)C(=O)N[C@@H](CCCNC(=N)N)C(=O)N[C@H](C(=O)N[C@@H](CCCCN)C(=O)N[C@@H](CC(=O)O)C(=O)N[C@@H](Cc1ccccc1)C(=O)N[C@@H](CC(C)C)C(=O)N[C@@H](CCCNC(=N)N)C(=O)N[C@@H](CC(N)=O)C(=O)N[C@@H](CC(C)C)C(=O)N[C@H](C(=O)N1CCC[C@H]1C(=O)N[C@@H](CCCNC(=N)N)C(=O)N[C@H](C(=O)N[C@@H](CCC(=O)O)C(=O)N[C@@H](CO)C(=O)O)[C@@H](C)O)C(C)C)[C@@H](C)CC)C(C)C)[C@@H](C)CC [CATHELICIDIN]
MIC [1]: 66 µg/mL (≈ 14.7 µM)
MIC [2]: 66 µg/mL (≈ 14.7 µM)
MIC [3]: 66 µg/mL (≈ 14.7 µM)

CO/N=C(\C(=O)N[C@@H]1C(=O)N2C(C(=O)[O-])=C(C[N+]3(C)CCCC3)CS[C@H]12)c1csc(N)n1 [CEFEPIME]
MIC [1]: 0.064 µg/mL (≈ 0.133 µM)
MIC [2]: 0.064 µg/mL (≈ 0.133 µM)
MIC [3]: 0.064 µg/mL (≈ 0.133 µM)

COCC1=C(C(=O)O)N2C(=O)[C@@H](NC(=O)/C(=N\OC)c3csc(N)n3)[C@H]2SC1 [CEFPODOXIME]
MIC [1]: 0.38 µg/mL (≈ 0.889 µM)
MIC [2]: 0.38 µg/mL (≈ 0.889 µM)
MIC [3]: 0.38 µg/mL (≈ 0.889 µM)

CO/N=C(\C(=O)N[C@@H]1C(=O)N2C(C(=O)O)=C(COC(N)=O)CS[C@H]12)c1ccco1 [CEFUROXIME]
MIC [1]: 4 µg/mL (≈ 9.43 µM)
MIC [2]: 4 µg/mL (≈ 9.43 µM)
MIC [3]: 4 µg/mL (≈ 9.43 µM)

CC(=O)OCC1=C(C(=O)O)N2C(=O)[C@@H](NC(=O)Cc3cccs3)[C@H]2SC1 [CEPHALOTHIN]
MIC [1]: 3 µg/mL (≈ 7.57 µM)
MIC [2]: 3 µg/mL (≈ 7.57 µM)
MIC [3]: 3 µg/mL (≈ 7.57 µM)

O=C(N[C@H](CO)[C@H](O)c1ccc([N+](=O)[O-])cc1)C(Cl)Cl [CHLORAMPHENICOL]
MIC [1]: 4 µg/mL (≈ 12.4 µM)
MIC [2]: 4 µg/mL (≈ 12.4 µM)
MIC [3]: 4 µg/mL (≈ 12.4 µM)

O=C(O)c1cn(C2CC2)c2cc(N3CCNCC3)c(F)cc2c1=O [CIPROFLOXACIN]
MIC [1]: 0.008 µg/mL (≈ 0.0241 µM)
MIC [2]: 0.008 µg/mL (≈ 0.0241 µM)
MIC [3]: 0.008 µg/mL (≈ 0.0241 µM)

NC[C@H]1O[C@H](O[C@H]2[C@H](O)[C@@H](O[C@H]3O[C@H](CO)[C@@H](O)[C@H](N)[C@H]3O)[C@H](N)C[C@@H]2N)[C@H](O)[C@@H](O)[C@@H]1O [KANAMYCIN]
MIC [1]: 1.5 µg/mL (≈ 3.1 µM)
MIC [2]: 1.5 µg/mL (≈ 3.1 µM)
MIC [3]: 1.5 µg/mL (≈ 3.1 µM)

CCn1cc(C(=O)O)c(=O)c2ccc(C)nc21 [NALIDIXIC ACID]
MIC [1]: 4 µg/mL (≈ 17.2 µM)
MIC [2]: 4 µg/mL (≈ 17.2 µM)
MIC [3]: 4 µg/mL (≈ 17.2 µM)

O=C1CN(/N=C/c2ccc([N+](=O)[O-])o2)C(=O)N1 [NITROFURANTOIN]
MIC [1]: 8 µg/mL (≈ 33.6 µM)
MIC [2]: 8 µg/mL (≈ 33.6 µM)
MIC [3]: 8 µg/mL (≈ 33.6 µM)

CN[C@@H]1[C@H](O[C@H]2[C@H](O[C@H]3[C@H](O)[C@@H](O)[C@H](N=C(N)N)[C@@H](O)[C@@H]3N=C(N)N)O[C@@H](C)[C@]2(O)C=O)O[C@@H](CO)[C@H](O)[C@H]1O [STREPTOMYCIN]
MIC [1]: 3 µg/mL (≈ 5.16 µM)
MIC [2]: 3 µg/mL (≈ 5.16 µM)
MIC [3]: 3 µg/mL (≈ 5.16 µM)

CN(C)[C@@H]1C(O)=C(C(N)=O)C(=O)[C@@]2(O)C(O)=C3C(=O)c4c(O)cccc4[C@@](C)(O)[C@H]3C[C@@H]12 [TETRACYCLINE]
MIC [1]: 3 µg/mL (≈ 6.75 µM)
MIC [2]: 3 µg/mL (≈ 6.75 µM)
MIC [3]: 3 µg/mL (≈ 6.75 µM)

BLEOMYCIN
MIC [1, 29]: 1.8 µg/mL
MIC [2, 29]: 0.4 µg/mL
MIC [3, 29]: 1.8 µg/mL

COLISTIN
MIC [1, 29]: 0.5 µg/mL
MIC [2, 29]: 0.5 µg/mL
MIC [3, 29]: 0.5 µg/mL

H-GLLRKGGEKIGEKLKKIGQKIKNFFQKLVPQPEQ-OH
MIC [1]: 32 µg/mL
MIC [2]: 32 µg/mL
MIC [3]: 32 µg/mL

H-GLVRKGGEKFGEKLRKIGQKIKEFFQKLALEIEQ-OH
MIC [1]: 30 µg/mL
MIC [2]: 23 µg/mL
MIC [3]: 23 µg/mL

H-RRRPRPPYLPRPRPPPFFPPRLPPRIPPGFPPRFPPRFP-NH2
MIC [4]: 2 µM
Activity [5]: inactive
MIC [6]: 3 µM
Activity [7]: inactive
Activity [8]: inactive
MIC [9]: 6 µM
MIC [10]: 3 µM
FC [11]: 4
FC [12]: 4
MIC [13]: 6 µM
MIC [14]: 3 µM
MIC [15]: 7 µM
FC [16]: 4
MIC [1]: 28 µg/mL
MIC [17]: 6 µM
MIC [18]: 7 µM
MIC [19]: 7 µM
MIC [2]: 8.5 µg/mL
MIC [3]: 28 µg/mL
MIC [20]: 7 µM
Activity [21]: inactive
MIC [22]: 7 µM
MIC [23]: 5 µM
MIC [24]: 1.5 µM
Activity [25]: inactive
MIC [26]: 7 µM
MIC [27]: 7 µM
Activity [28]: inactive
